Common to all, as to type: functional
For one experiment, the system named is Candida albicans. The experiment is described as follows: Antifungal activity against Candida albicans at 100 ug/disk after 24 hrs by diffusion technique. The note with it: for zone of inhibition at 100 µg/disc: read-out: DIZ.
Experiment [1] concerns Staphylococcus saprophyticus. The experiment is described as follows: Antibacterial activity against Staphylococcus saprophyticus at 30 ug/disk after 24 hrs by diffusion technique. As to conditions: read-out: DIZ.
For the next experiment, the system named is Staphylococcus aureus. The experiment is described as follows: Antibacterial activity against Staphylococcus aureus ATCC 25923 at 30 ug/disk after 24 hrs by diffusion technique. The note with it: ATCC 25923, 24 h, read-out: DIZ.
The subject of the next experiment is Bacillus subtilis. The experiment is described as follows: Antibacterial activity against Bacillus subtilis at 30 ug/disk after 24 hrs by diffusion technique. As to conditions: read-out: DIZ.
The subject of another experiment is Micrococcus luteus. The experiment in a line: Antibacterial activity against Sarcina lutea ATCC 9341 at 30 ug/disk after 24 hrs by diffusion technique. As to conditions: ATCC 9341, 24 h, read-out: DIZ.
The test system of a further experiment is Pseudomonas aeruginosa. The experiment in a line: Antibacterial activity against Pseudomonas aeruginosa at 30 ug/disk after 24 hrs by diffusion technique. As to conditions: read-out: DIZ.
A further experiment relates to Escherichia coli. The experiment in a line: Antibacterial activity against Escherichia coli ATCC 25922 at 30 ug/disk after 24 hrs by diffusion technique. As to conditions: ATCC 25922, 24 h, read-out: DIZ.
The next experiment deals with Bacillus cereus. The experiment in a line: Antibacterial activity against Bacillus cereus at 30 ug/disk after 24 hrs by diffusion technique. As to conditions: read-out: DIZ.

This note sets out measurements from ChEMBL document CHEMBL1137691, “Diazinium salts with dihydroxyacetophenone skeleton: Syntheses and antimicrobial activity” (2009).

Regarding NYSTATIN, the inhibition zone (IZ) with Candida albicans came to 28 mm.
In the case of `O=C(C[n+]1ccc(O)nc1)c1ccc(O)c(O)c1`, the zone of inhibition at 30 µg/disc in experiment [1] was 35 mm; in the experiment on Staphylococcus aureus it was 33 mm; in the experiment on Bacillus subtilis, 38 mm; in the experiment on Micrococcus luteus it was 42 mm; in the experiment on Pseudomonas aeruginosa, 36 mm; with Escherichia coli, 44 mm. For the same compound, the zone of inhibition at 30 µg/disc in the experiment with Bacillus cereus stood at 32 mm. For the same compound, the zone of inhibition at 100 µg/disc with Candida albicans stood at 28 mm.
In the case of `O=C(C[n+]1cccc(-c2ccc(Br)cc2)n1)c1ccc(O)c(O)c1`, the zone of inhibition at 30 µg/disc is 21 mm in experiment [1]; 17 mm in the experiment on Staphylococcus aureus; 16 mm in the experiment on Bacillus subtilis; 30 mm with Micrococcus luteus; 15 mm in the experiment on Pseudomonas aeruginosa; 15 mm in the experiment with Escherichia coli. Moreover, the zone of inhibition at 30 µg/disc in the experiment with Bacillus cereus came out at 9 mm. Moreover, the zone of inhibition at 100 µg/disc in the experiment with Candida albicans stood at 12 mm.
As to `Cc1ccc(-c2ccc[n+](CC(=O)c3ccc(O)c(O)c3)n2)cc1`, the zone of inhibition at 30 µg/disc is 40 mm in experiment [1]; 23 mm with Staphylococcus aureus; 35 mm in the experiment with Bacillus subtilis; 41 mm in the experiment on Micrococcus luteus; 16 mm in the experiment with Pseudomonas aeruginosa; 40 mm in the experiment with Escherichia coli. For the same compound, in the experiment with Bacillus cereus, the zone of inhibition at 30 µg/disc was 33 mm. The zone of inhibition at 100 µg/disc with Candida albicans stood at 25 mm.
Consider `O=C(N[C@H](CO)[C@H](O)c1ccc([N+](=O)[O-])cc1)C(Cl)Cl` [CHLORAMPHENICOL], for which the zone of inhibition at 30 µg/disc came out at 23 mm in experiment [1]; 23 mm in the experiment on Staphylococcus aureus; 22 mm with Bacillus subtilis; 38 mm in the experiment with Micrococcus luteus; 11 mm in the experiment with Pseudomonas aeruginosa; 22 mm with Escherichia coli. The zone of inhibition at 30 µg/disc in the experiment with Bacillus cereus amounted to 22 mm.
`O=C(C[n+]1ccccn1)c1ccc(O)c(O)c1`: the zone of inhibition at 30 µg/disc in experiment [1] is 15 mm; in the experiment on Staphylococcus aureus, 17 mm; in the experiment with Bacillus subtilis, 11 mm; with Micrococcus luteus, 30 mm; in the experiment with Pseudomonas aeruginosa, 20 mm; in the experiment with Escherichia coli, 30 mm. The zone of inhibition at 30 µg/disc with Bacillus cereus stood at 20 mm. The zone of inhibition at 100 µg/disc in the experiment with Candida albicans amounted to 0 mm.
Consider `Cc1cc[n+](CC(=O)c2ccc(O)c(O)c2)cn1`, for which the zone of inhibition at 30 µg/disc stood at 35 mm in experiment [1]; 31 mm in the experiment with Staphylococcus aureus; 36 mm with Bacillus subtilis; 40 mm with Micrococcus luteus; 30 mm in the experiment with Pseudomonas aeruginosa; 41 mm in the experiment on Escherichia coli. Also, the zone of inhibition at 30 µg/disc in the experiment with Bacillus cereus came out at 35 mm. Moreover, in the experiment on Candida albicans, the zone of inhibition at 100 µg/disc was found to be 27 mm.
For the compound `Cc1ccc[n+](CC(=O)c2ccc(O)c(O)c2)n1`, the zone of inhibition at 30 µg/disc in experiment [1] was 29 mm; in the experiment with Staphylococcus aureus, 26 mm; in the experiment with Bacillus subtilis, 28 mm; in the experiment with Micrococcus luteus it was 40 mm; in the experiment on Pseudomonas aeruginosa, 18 mm; with Escherichia coli, 28 mm. Moreover, the zone of inhibition at 30 µg/disc in the experiment with Bacillus cereus stood at 29 mm. In the experiment with Candida albicans, the zone of inhibition at 100 µg/disc turned out to be 15 mm.
